Values joined by “and” are separate entries in the source; they are usually repeats but may differ in a detail not shown here. Identical values can stand only once. Where only a bound is given, the exact number is not on record here.

The test system of one data set is PGE2 content in the SF. Put plainly: PGE2 content in the SF of rabbits with antigen-induced arthritis. It counts as in vivo, rabbit. The settings on record: for production of PGE2 in the SF, group comparison: 72 h after administration. The protocol:
To prepare the anesthetic, saline (2 mL), midazolam (1 mL, 5 mg/mL, Astellas Pharma Inc., Tokyo, Japan), xylazine (2 mL, 0.02 g/mL, Bayer Medical Ltd., Tokyo, Japan), and butorphanol tartrate (1 mL, 5 mg/mL, Meiji Seika Kaisha, Ltd., Tokyo, Japan) were mixed. The anesthetic was administered intravenously to each animal at a volume of 1 mL/body. OVA (Sigma-Aldrich Co., St. Louis, MO) emulsion with Freund's complete adjuvant (FCA; CAPPEL Laboratories Inc., Cochranville, PA) was injected intradermally into the backs of 80 male rabbits at a dose of 5 mg/animal twice at an interval of 13 or 14 days. Twenty-three days after the first immunization, 1% OVA solution was injected in the joint cavities of the left hindlimb at a volume of 500 μL/joint to induce arthritis. […] Animals were sacrificed by exsanguination under 2% isoflurane anesthesia 3 and 72 h after administration, respectively. The SF was collected by washing the joint cavity twice with saline (Otsuka Pharmaceutical Factory, Inc.) containing 20 μg/mL of indomethacin ([…] K. K.) at 3 or 72 h after the administration of the test materials. The PGE2 content in the SF was determined as a mechanism biomarker for the anti-inflammatory effect using a High Sensitivity Prostaglandin E2 Enzyme Immunoassay Kit (Assay Designs Inc.).

Data set [1] in a line: Distribution of DF in knee tissues after a single administration, short-term study (LC-MS/MS). It counts as in vivo, rabbit. Particulars: individual animals, free DF.
Description: Two days after the induction of arthritis, 5 mg/joint SI-613, a mixture of 0.59 mg/joint DF-Na and 5 mg/joint HA (DF-Na + HA), or PBS was administered to the knee joint cavity at a volume of 500 μL/joint. DF-Na was orally administered at a dose of 2 mg/kg. The concentrations of free DF in the synovium and synovial lavage fluid were measured by high performance liquid chromatography coupled with tandem mass spectrometry (LC-MS/MS) at 3 and 72 h after a single IA administration and after a single oral administration of the test materials, respectively. Moreover, plasma concentrations of DF were determined to compare the systemic exposure of DF after the administration of SI-613 with that of the other compounds. The synovium was homogenized in 40-fold volume (40 mL for 1 g tissue) of 10 mM ammonium formate (pH 6.0)/methanol (3:2, v/v) on an ice bath. Then, free DF in the homogenate was extracted with tert-butyl methyl ether-1% acetic acid (6:1, v/v). Free DF in the synovial fluid or plasma was adsorbed to an Oasis HLB cartridge (30 mg/1 cm^3, Waters Corporation, Milford, MA) and eluted with methanol. The internal standard of deuterium-labeled diclofenac (diclofenac-d7) was added to each sample. The extract was loaded onto a CAPCELL PAK C18 MG HPLC column (Shiseido Co. Ltd., Tokyo, Japan, column size: 4.6 mm × 35 mm, particle size: 5 μm) at 40 °C, and eluted with 10 mM ammonium formate (pH 6.0)/methanol (2:3, v/v) at a flow rate of 0.5 mL/minute. For mass detection, we used a QTRAP® 5500 System (AB SCIEX, Framingham, MA) equipped with an electrospray ionization (ESI) source in positive ions in multiple reaction monitoring (MRM) mode. Linear calibration (r > 0.999) was attained at 5–1000 ng/g for the synovium and at 1–200 ng/mL for the synovial fluid and plasma.
The nature of data set [2]: Plasma DF concentrations of rabbits with antigen-induced arthritis. It counts as in vivo, rabbit.
Description: Arthritis was induced in the 12 rabbits as described above. Two days after the induction of arthritis, 5 mg/joint SI-613, a mixture of 0.59 mg/joint DF-Na and 5 mg/joint HA (DF-Na + HA), or PBS was administered to the knee joint cavity at a volume of 500 μL/joint. DF-Na was orally administered at a dose of 2 mg/kg. The concentrations of free DF in the synovium and synovial lavage fluid were measured by high performance liquid chromatography coupled with tandem mass spectrometry (LC-MS/MS) at 3 and 72 h after a single IA administration and after a single oral administration of the test materials, respectively. Moreover, plasma concentrations of DF were determined to compare the systemic exposure of DF after the administration of SI-613 with that of the other compounds. The synovium was homogenized in 40-fold volume (40 mL for 1 g tissue) of 10 mM ammonium formate (pH 6.0)/methanol (3:2, v/v) on an ice bath. Then, free DF in the homogenate was extracted with tert-butyl methyl ether-1% acetic acid (6:1, v/v). Free DF in the synovial fluid or plasma was adsorbed to an Oasis HLB cartridge (30 mg/1 cm^3, Waters Corporation, Milford, MA) and eluted with methanol. The internal standard of deuterium-labeled diclofenac (diclofenac-d7) was added to each sample. The extract was loaded onto a CAPCELL PAK C18 MG HPLC column (Shiseido Co. Ltd., Tokyo, Japan, column size: 4.6 mm × 35 mm, particle size: 5 μm) at 40 °C, and eluted with 10 mM ammonium formate (pH 6.0)/methanol (2:3, v/v) at a flow rate of 0.5 mL/minute. For mass detection, we used a QTRAP® 5500 System (AB SCIEX, Framingham, MA) equipped with an electrospray ionization (ESI) source in positive ions in multiple reaction monitoring (MRM) mode. Linear calibration (r > 0.999) was attained at 5–1000 ng/g for the synovium and at 1–200 ng/mL for the synovial fluid and plasma. The extraction efficiencies of diclofenac were 84.2–92.9% for the synovium, 95.2–100.3% for the synovial fluid, and 94.2–96.5% for the plasma.
Time for calculation of area under the DF plasma concentration-time curve (AUC0-t), t (day), was the latest time point at which DF was quantifiable. The half-life (T1/2) was determined by semi-log plotting the data of at least three time points after Tmax.
For data set [3], the system named is silver nitrate-induced arthritic rats. Put plainly: Rat model of silver nitrate-induced arthritic pain (pain score, weight-bearing rate). It counts as in vivo. The source says:
The silver nitrate-induced arthritic pain model is known as a subacute arthritis model, in which the inflammatory response and pain last for at least 3 days following injury. This model involves the activation of prostaglandin pathways and has been used for evaluating the analgesic effects of various NSAIDs or kappa-opioid receptor agonist. Overall, 136 male Sprague-Dawley (SD) rats were obtained from Charles River Laboratories Japan Inc. General anesthesia was maintained by the inhalation of isoflurane (Forane; Dainippon Sumitomo Pharma Co., Ltd., Osaka, Japan). Silver nitrate solution (1%, Wako Pure Chemical Industries, Ltd., Osaka, Japan) at a volume of 50 μL/joint was injected in the knee joint cavity of the left hindlimbs of rats. Animals with no abnormalities were allocated to four groups in each study based on the weight-bearing rate of the inflamed joints and pain score at the time of allocation, by using stratified continuous randomization. Test substances were administered on the day following the arthritis induction. In the first study, SI-613 (contents of DF; 11.8% (w/w), manufactured by Seikagaku Corporation, Tokyo, Japan) at doses of 0.05, 0.15, and 0.5 mg/50 μL/joint (5.9, 17.7, and 59 μg/joint in DF equivalent) or phosphate-buffered saline (PBS) was once injected into the joint cavities of the left hindlimbs for the dose-response assessments.
In the second study, SI-613 (0.5 mg/joint, 59 μg/joint in DF equivalent), HA (0.5 mg/joint, Seikagaku Corporation), a mixture of DF-Na (59 μg/joint, Wako Pure Chemical Industries, Ltd.) and HA (0.5 mg/joint) (DF-Na + HA), or PBS was administered in the same manner for the proof of concept. The doses of DF-Na and HA were set at those of respective components in SI-613 formulation. The DF-Na solution (1 mg/mL) was prepared using the Water for Injection (Otsuka Pharmaceutical Factory, Inc., Tokyo, Japan) and administered orally at a dose of 2 mg/kg (approximately 0.3 mg/body) once daily for 3 days. The oral DF-Na dose, 2 mg/kg, was set in accordance with the dose for adult humans with a body weight of 50 kg, on the assumption that the maximum daily dose in clinical practice administered to patients with OA or rheumatoid arthritis would be 100 mg. It has been reported that DF-Na exerted anti-inflammatory effects in rats when administered at this dose.
Pain was assessed under blinded conditions by scoring pain-related behaviors based on the following criteria and measuring the weight-bearing rates of hindlimbs with a load-measuring device (Tokken Inc., Chiba, Japan) at a same time each day for 3 days after the injection of the test materials.
The criteria for assigning pain scores were as follows: 0; normal, 1; mild claudication with lifting the foot, 2; severe claudication with completely closing the toe, 3; walking on three legs. The weight-bearing rate was calculated using the following formula:
Weight-bearing rate (%) = Mean weight-bearing load on inflamed leg (g) / Body weight (g) × 100.

Data set [4] is described as follows: DF in knee tissues after a single IA administration of SI-613, long-term study (LC-MS/MS). It counts as in vivo, rabbit. Particulars: single IA 5 mg/joint. The protocol:
Arthritis was induced in the 24 rabbits as described above. Two days after the induction of arthritis in the rabbits, 5 mg/joint SI-613 or PBS was administered at a volume of 500 μL/joint into the knee joint cavity. Concentrations of DF in the synovium and synovial lavage fluid were measured by LC-MS/MS on days 1, 3, 7, 14, 21, 28, 35, and 42 after a single IA administration.

For data set [5], the system named is antigen-induced arthritic rabbits. The data set is described as follows: Knee joint swelling of antigen-induced arthritic rabbits (long-lasting anti-inflammatory effect). It counts as in vivo, rabbit. Particulars: single IA 5 mg/joint. As to the method:
The duration and efficacy of the anti-inflammatory effect of SI-613 was studied in OVA-induced arthritis rabbits. Two days after the arthritis induction, the knee joint diameter in all 60 rabbits was measured with a digital thickness gauge (Teclock Corp., Nagano, Japan). The joint swelling was expressed as the difference in millimeters between the inflamed (left) and non-inflamed (right) knee joint diameters. The same researcher evaluated the knee joint swelling on all groups on all days. Fifteen animals (knee joint swelling was not more than 7.30 mm) and 5 animals (knee joint swelling was not less than 10.40 mm) were excluded. Forty animals were divided into two groups of 20 animals each by the stratified random sampling method based on the knee joint swelling and body weight of the day, and were administered with 5 mg/joint SI-613 or PBS at a volume of 500 μL/joint into the joint cavities. The knee joint swelling was evaluated the day before (day 0), and on days 1, 3, 7, 14, 21, 28, 35, and 42 after a single injection of the test materials. The knee joint swelling was expressed as the difference in the width of the right and left knee joint.

Data set [6] relates to PGE2 content in the synovial fluid. The data set is described as follows: PGE2 content in the synovial fluid of silver nitrate-induced arthritic rats. It counts as in vivo, rat. As to the method:
In addition, the prostaglandin E2 (PGE2) content, which plays a critical role in inducing inflammation and pain associated with arthritis, was determined in the synovial fluid (SF). Briefly, SI-613 (0.5 mg/joint) or PBS was administered into the joint cavity of the left hindlimb. After assessing the severity of pain, animals were sacrificed by exsanguination under 2% isoflurane anesthesia 1, 2 and 3 days after administration, respectively. The SF was collected by washing the joint cavity with saline (Otsuka Pharmaceutical Factory, Inc.) containing indomethacin (Indacin, MSD K. K., Tokyo, Japan), which was effective to prevent joint puncturing-induced production of PGE2 (unpublished result). The PGE2 content in the SF was measured with a High Sensitivity PGE2 Correlate-EIA kit (Assay Designs Inc., Ann Arbor, MI).

The mark [7] stands for this setting: sampling point 72 h, oral 2 mg/kg or single IA.
[8] abbreviates: second study, single IA 0.5 mg/joint, compared with PBS, HA, DF-Na + HA or repeated oral DF-Na.
Setting [9] is: sampling point 72 h, oral 2 mg/kg or single IA, 2 mg/kg.

In general, Tmax refers to the time from dosing to the highest level. The term Cmax denotes the maximum level reached in the sampled fluid or tissue. As for `O=C(O)Cc1ccccc1Nc1c(Cl)cccc1Cl` [DF-Na, diclofenac sodium], the “mean PGE2 content in the SF” value in the data set on PGE2 content in the SF (3 h after administration, DF-Na oral 2 mg/kg) worked out at 3767 pg/joint. Also, the “production of PGE2 in the SF compared with the control group” value in the data set with PGE2 content in the SF (3 h after administration, oral 2 mg/kg) is given as “significantly suppressed”. The “production of PGE2 in the SF, group comparison” value with PGE2 content in the SF was “No significant differences”. Further, the “Concentration of DF Synovial lavage fluid” value in data set [1] (sampling point 3 h) is 124.6 ng/mL fluid and 58.23 ng/mL fluid and 45.66 ng/mL fluid; in data set [1] (setting [7]), “BLQ2 (< 1 ng of DF per mL of synovial lavage fluid)”. For the same compound, the “Concentration of DF Synovium” value in data set [1] (sampling point 3 h) was 155.8 ng/g tissue and 52.88 ng/g tissue and 75.83 ng/g tissue; in data set [1] (setting [7]), “BLQ1 (below limit of quantification, < 5 ng/g)”. Besides, in data set [2] (rabbit, plasma, po, 2 mg/kg, mean ± SD, read-out: AUC0-∞ of DF in plasma), the AUC(0-inf) is 4130 ng·h/mL. Besides, the half-life in data set [2] (rabbit, plasma, po, 2 mg/kg, mean ± SD, read-out: t1/2 of DF in plasma (converted)) is 12.8 h. Also, in data set [2] (rabbit, plasma, po, 2 mg/kg, same groups, mean ± SD), the Tmax worked out at 2.4 ± 3.2 h. Also, the AUC(0-t) in data set [2] (rabbit, plasma, po, 2 mg/kg, t = latest time point at which DF was quantifiable, mean ± SD, read-out: AUC0-t of DF in plasma) was 4690 ± 1900 ng·h/mL. In addition, the Cmax in data set [2] (rabbit, plasma, DF-Na oral 2 mg/kg, mixture DF-Na 0.59 mg + HA 5 mg/joint IA, SI-613 5 mg/joint IA, mean ± SD) came out at 621 ± 372 ng/mL.
On to “N-[2-[[2-[2-[(2,6-dichlorophenyl)amino]phenyl]acetyl]oxy]ethyl]hyaluronamide [SI-613]”, for which the “analgesic effect (pain score)” value in data set [3] (PGE2 study, IA 0.5 mg/joint, days 1, 2 and 3) is given as “confirmed each day”. Also, the pain behavioral score entry in data set [3] (first study, single IA 0.05, 0.15 and 0.5 mg/joint, vs control (PBS), mean of 3 days) was “improved the pain behavioral scores significantly”. In data set [3] (first study, single IA 0.15 and 0.5 mg/joint, vs control, mean of 3 days), the weight-bearing rate entry was “significantly increased the weight-bearing rates”. In data set [3] (setting [8]), the pain behavioral score result is recorded as “significantly improved the pain behavioral score” and the weight-bearing rate result is reported as “increased the weight-bearing rate”. Also, the “production of PGE2 in the SF, group comparison” value in the data set with PGE2 content in the SF was “significantly suppressed”. The “mean amount of DF in the joint cavity lavage fluid” value in data set [4] (day 21) is 5.940 ng/joint. In addition, in data set [4] (day 28), the “DF in the joint cavity lavage fluid” value is on record as < 1 ng of DF per mL of synovial lavage fluid and the “mean DF concentration in the synovium” value stood at 9.754 ng/g. Further, in data set [1] (setting [9]), the “Concentration of DF Synovial lavage fluid” value is 60.64 ng/mL fluid and 38.82 ng/mL fluid and 1540 ng/mL fluid; the “Concentration of DF Synovium” value is 15.23 ng/g tissue and 45.47 ng/g tissue and 351.1 ng/g tissue. Moreover, in data set [2] (SI-613 IA vs DF-Na + HA IA), the “plasma AUC0-t of DF, times smaller than DF-Na + HA group (IA)” value came to 16 times and the “plasma Cmax of DF, times lower than DF-Na + HA group (IA)” value amounted to 94 times. In data set [2] (SI-613 IA vs DF-Na oral), the “plasma AUC0-t of DF, times smaller than DF-Na group (oral)” value is recorded as 187 times and the “plasma Cmax of DF, times lower than DF-Na group (oral)” value is given as 462 times. For the same compound, the “knee joint swelling compared with the control” value in data set [5] (day 1 until day 28) is “significantly decreased”. For the same compound, in data set [5] (day 35 and day 42), the “knee joint swelling compared with the control” value is listed as “no significant difference”. Also, in data set [6] (IA 0.5 mg/joint, days 1, 2 and 3), the “PGE2 content in the SF vs control” value is recorded as “lower PGE2 content than the control group”. The “PGE2-inhibitory effect, statistical significance vs control” value in data set [6] (rat model, 72 h after administration) is listed as “no statistically significant difference”.

The values are drawn from publication PMC5964640, “Pharmacological effects of N-[2-[[2-[2-[(2,6-dichlorophenyl)amino]phenyl]acetyl]oxy]ethyl]hyaluronamide (diclofenac Etalhyaluronate, SI-613), a novel sodium hyaluronate derivative chemically linked with diclofenac” (BMC Musculoskeletal Disorders, 2018).
